The results in this text go back to patent publication US8278482B2, “Antimicrobial N-chlorinated compositions” (priority 2008, dated 2012).

Type in all cases: cell-based
The subject of series [1] is Staphylococcus aureus (ATCC 29213). The series can be described thus: Antimicrobial activity (MBC), S. aureus ATCC 29213. As to the method:
(§1) To determine antimicrobial activity, Escherichia coli (ATCC 25922), Staphylococcus aureus (ATCC 29213), Pseudomonas aeruginosa (ATCC 27853), and Candida albicans (ATCC 10231) were used in primary screening. In addition, Escherichia coli (MCC 80392), Staphylococcus aureus (MCC 91731), Pseudomonas aeruginosa (MCC 4438), and Candida albicans (MCC 50319), provided by Alcon Laboratories, Fort Worth, Tex., were used. The microbial cultures were diluted in sterile saline pH 4 to prepare inocula. Test compounds were titrated by stepwise two-fold dilutions in sterile saline pH 4. A total of 1.0×10^5 to 1.0×10^6 Colony Forming Units (CFU)/mL microbe was added to each tube, mixed by gentle vortexing, and then incubated at room temperature for 1 h. Microbial plating on Petri dishes (Tryptic Soy agar or Saboraud's Dextrose agar) was performed immediately after the designated exposure after neutralization of the test article dilutions in Dey-Engley Broth. Plates were incubated at 37° C., and the numbers of microbes were counted by direct colony count to quantitate the surviving microbes as CFU/mL. Positive growth controls were made with sterile 0.9% saline. Compounds were dissolved in unbuffered isotonic saline (SAL) or phosphate buffered saline (PBS) at pH 4 or pH 7 (using HCl and/or NaOH as needed). All compounds were tested three times. The results are tabulated to show the comparison of antimicrobial effectiveness range of the compounds.
(§2) Data shown are the Minimum Bactericidal Concentration (MBC) or Minimum Fungicidal Concentration (MFC) (≧99.9% kill) in μg/mL.

The subject of series [2] is Candida albicans (ATCC 10231). Nature of the series: Antimicrobial activity (MFC), C. albicans ATCC 10231. The settings on record: ATCC10231, C. albicans ATCC 10231, pH 4 (Sal), 1 h exposure at room temperature, read-out: Minimum Fungicidal Concentration (MFC) (≧99.9% kill). As to the method: as §1, §2
Series [3] relates to Escherichia coli (ATCC 25922). Nature of the series: Antimicrobial activity (MBC), E. coli ATCC 25922. As to the method:
as §1, §2

For series [4], the system named is mouse fibroblast cells (ATCC CCL-1, L929). Nature of the series: Cytotoxicity, WST-8 colorimetric assay. Conditions: 60 min exposure. As to the method:
Cytotoxicity was assessed by a colorimetric assay system using the Dojindo™ cell counting kit containing 2-(2-methoxy-4-nitrophenyl)-3-(4-nitrophenyl)-5-(2,4-disulfophenyl)-2H-tetrazolium, monosodium salt (WST-8). In this assay, the WST-8 reagent was bioreduced by cellular dehydrogenases to a formazan product that is highly soluble in tissue culture medium.
In a standard assay, mouse fibroblast cells (ATCC CCL-1, L929), were cultured in Minimum Essential Medium, α-medium supplemented with 10% heat inactivated fetal bovine serum, L-glutamine, penicillin and streptomycin. Cells were trypsinized and counted under the microscope and seeded at 1.5×10^4 total cells per 100 μL per well of a flat-bottom 96-well plate in order to achieve ˜80% confluence after overnight incubation at 37° C. On the day of the assay, the tissue culture medium was removed and replaced with 30 μL of fresh medium.
Test articles were prepared as 2-fold serial dilutions and 170 μL of each dilution is added into each of 4-wells (total volume per well=200 μL). The test plate was then returned to the 37° C. incubator for 60 min. Immediately after the exposed time, test article from each well was replaced with 200 μL of fresh media. Plates were incubated at 37° C. for 18-20 hours. The following day growth medium was replaced with 100 μL/well of fresh medium containing 10 μL WST-8 reagent. Cells were incubated under growth conditions (5% CO2 at 37° C. humidified incubator), protected from light, until color development was achieved (usually 1-4 hours). Absorbance was read at 450 nm with reference wavelength at 750 nm using Molecular Device SpectraMax M5 plate reader. Untreated or vehicle only treated cells receiving WST-8 reagent served as positive cell proliferation controls.
The absorbance A450/750 from each well of untreated cells and from each well within the dilution series was measured. […] Next, a non-linear regression (curve fit) analysis was performed on all the absorbance data measured from the dilution series, including the absorbance data obtained from wells of the untreated control cells. For each dilution within the dilution series, an average A450/750 was calculated from the four replicate wells.

[5] abbreviates: ATCC29213, S. aureus ATCC 29213, pH 4 (Sal), 1 h exposure at room temperature, read-out: Minimum Bactericidal Concentration (MBC) (≧99.9% kill).
[6] abbreviates: ATCC25922, E. coli ATCC 25922, pH 4 (Sal), 1 h exposure at room temperature, read-out: Minimum Bactericidal Concentration (MBC) (≧99.9% kill).
[7] abbreviates: ATCC25922, E. coli ATCC 25922, pH 7 (PBS), 1 h exposure at room temperature, read-out: Minimum Bactericidal Concentration (MBC) (≧99.9% kill).

Read-outs that look alike come from different tables or passages of the source.

Regarding `CC(C)(C[N+](C)(C)CCS(=O)(=O)O)N(Cl)Cl.[Cl-]` [Compound 21-90, 2-(Dichloroamino)-N,N-2-trimethyl-N-(2-sulfoethyl)propan-1-ammonium chloride], the MBC was 16 µg/mL in series [1] (setting [5]) and 64 µg/mL in series [3] (setting [6]). For the same compound, the MFC in series [2] is 128 µg/mL.
In the case of `CC(C)(CC[N+](C)(C)CC(F)(F)F)N(Cl)Cl.[Cl-]` [Compound 21-132, 3-(Dichloroamino)-N,N,3-trimethyl-N-(2,2,2-trifluoroethyl)butan-1-ammonium chloride], the results for the MBC in series [1] (setting [5]) and in series [3] (setting [6]) were 2 µg/mL and 4 µg/mL, respectively. Moreover, the MFC in series [2] is 32 µg/mL.
As for `CC(C)(CC[N+]1(C)CCC(F)(F)CC1)N(Cl)Cl.[Cl-]` [Compound 21-116, 1-(3-(Dichloroamino)-3-methylbutyl)-4,4-difluoro-1-methylpiperidinium chloride], in series [4] (pH 4 (Sal)), the “CT50 (concentration that results in survival of 50% of the cells)” value stood at 3.0 mM. The MBC in series [1] (setting [5]) was found to be 2 µg/mL; in series [3] (setting [6]) it was 4 µg/mL. For the same compound, the MFC in series [2] was 32 µg/mL.
On to `C[S+](C)CC(C)(C)N(Cl)Cl.[Cl-]` [Compound 21-86, (2-(Dichloroamino)-2-methylpropyl)dimethylsulfonium chloride], for which the “CT50 (concentration that results in survival of 50% of the cells)” value in series [4] (pH 7 (PBS)) is listed as 0.6 mM. Further, the values for the MBC in series [1] (setting [5]) and in series [3] (setting [6]) were 4 µg/mL and 8 µg/mL, respectively. Also, in series [2], the MFC worked out at 128 µg/mL.
Turning to `CCCCCCCCCCCC[N+](C)(C)CCC(C)(C)N(Cl)Cl` [Compound 21-138, N-(3-(Dichloroamino)-3-methylbutyl)-N,N-dimethyldodecan-1-ammonium chloride], the “CT50 (concentration that results in survival of 50% of the cells)” value in series [4] (pH 4 (Acetate)) is on record as 0.5 mM.
Turning to `CC(C)(CCS(=O)(=O)CC[N+](C)(C)C)N(Cl)Cl.[Cl-]` [Compound 21-02, 2-(3-(Dichloroamino)-3-methylbutylsulfonyl)-N,N,N-trimethylethanammonium chloride], the “CT50 (concentration that results in survival of 50% of the cells)” value in series [4] (pH 4 (Sal)) was below 0.03 mM. For the same compound, the values for the MBC in series [1] (setting [5]) and in series [3] (setting [6]) were 2 µg/mL and 8 µg/mL, respectively. Also, in series [2], the MFC was 32 µg/mL.
For `CC(C)(CCC[P+](C)(C)C)N(Cl)Cl.[Cl-]` [Compound 21-106, (4-(Dichloroamino)-4-methylpentyl)trimethylphosphonium chloride], the MBC in series [1] (setting [5]) was 2 µg/mL; in series [3] (setting [6]), 4 µg/mL. Moreover, the MFC in series [2] was above 256 µg/mL.
For `CC1(C)CC[N+](C)(CCC(C)(C)N(Cl)Cl)CC1.[Cl-]` [Compound 21-122, 1-(3-(Dichloroamino)-3-methylbutyl)-1,4,4-trimethylpiperidinium chloride], the “CT50 (concentration that results in survival of 50% of the cells)” value in series [4] (pH 4 (Acetate)) came out at 1.0 mM. Besides, the MBC in series [1] (setting [5]) is 4 µg/mL; in series [3] (setting [6]) it was 16 µg/mL.
On to `CC[N+](C)(C)CCC(C)(C)N(Cl)Cl.[Cl-]` [Compound 21-134, 3-(Dichloroamino)-N-ethyl-N,N,3-trimethylbutan-1-ammonium chloride], for which, in series [4] (pH 4 (Acetate)), the “CT50 (concentration that results in survival of 50% of the cells)” value worked out at 1.4 mM.
As for `CC(C)(CC[N+]12CCC(CC1)CC2)N(Cl)Cl` [Compound 21-120, 1-(3-(Dichloroamino)-3-methylbutyl)-1-azoniabicyclo[2.2.2]octane methanesulfonate], the “CT50 (concentration that results in survival of 50% of the cells)” value in series [4] (pH 4 (Acetate)) is given as 1.3 mM. The figures for the MBC in series [1] (setting [5]) and in series [3] (setting [6]) were 2 µg/mL and 8 µg/mL, respectively. For the same compound, the MFC in series [2] was determined as 32 µg/mL.
Regarding `CC(C)(CCC[N+](C)(C)C)N(Cl)Cl.[Cl-]` [Compound 21-108], the results for the MBC in series [1] (setting [5]) and in series [3] (setting [6]) were 2 µg/mL and 8 µg/mL, respectively. Besides, the MFC in series [2] is 256 µg/mL.
Consider `CC(=O)N1CC[N+](C)(CC(C)(C)N(Cl)Cl)CC1.[Cl-]` [Compound 21-110, 4-Acetyl-1-(2-(dichloroamino)-2-methylpropyl)-1-methylpiperazin-1-ium chloride], for which the “CT50 (concentration that results in survival of 50% of the cells)” value in series [4] (pH 4 (Sal)) was 0.9 mM. In addition, the MBC in series [1] (setting [5]) came out at 16 µg/mL; in series [3] (setting [6]), 64 µg/mL. In series [2], the MFC is above 1020 µg/mL.
The matching figures for `CC(C)(CCS(=O)(=O)CCC[N+](C)(C)C)N(Cl)Cl.[Cl-]` [Compound 21-112, S-3-(3-(Dichloroamino)-3-methylbutylsulfonyl)-N,N,N-trimethylpropan-1-ammonium chloride]: 1.4 mM, 2 µg/mL, 8 µg/mL and 32 µg/mL.
Regarding `CC(C)(CC[N+]1(C)CCCC1)N(Cl)Cl.[Cl-]` [Compound 21-130, 1-(3-(Dichloroamino)-3-methylbutyl)-1-methylpyrrolidinium chloride], the results for the MBC in series [1] (setting [5]) and in series [3] (setting [6]) were 2 µg/mL and 4 µg/mL, respectively. The MFC in series [2] is 32 µg/mL.
As to `CCCC[N+](C)(CCCC)CCC(C)(C)N(Cl)Cl` [Compound 21-48, N,N-Dibutyl-3-(dichloroamino)-N-3-dimethylbutan-1-aminium chloride], the MBC in series [1] (ATCC29213, 1 h, pH 4, read-out: Minimum Bactericidal Concentration (MBC) (≧99.9% kill)) was 4 µg/mL; in series [3] (ATCC25922, 1 h, pH 4, read-out: Minimum Bactericidal Concentration (MBC) (≧99.9% kill)), 16 µg/mL.
Regarding `CN(CC[N+](C)(C)C)C(=O)CC(C)(C)N(Cl)Cl.[Cl-]` [Compound 21-14, 2-(3-(Dichloroamino)-N,3-dimethylbutanamido)-N,N,N-trimethylethanaminium chloride], the figures for the MBC in series [1] (setting [5]), in series [3] (setting [6]) and in series [3] (setting [7]) were 2 µg/mL, 16 µg/mL and 256 µg/mL, respectively. Also, the MFC in series [2] was 32 µg/mL.
Take `CC(C)(c1cn(CC[N+](C)(C)C)nn1)N(Cl)Cl.[Cl-]` [Compound 21-92, 2-(4-(2-(Dichloroamino)propan-2-yl)-1H-1,2,3-triazol-1-yl)-N,N,N-trimethylethanaminium chloride]: the MBC in series [1] (setting [5]) amounted to 4 µg/mL; in series [3] (setting [6]), 8 µg/mL. Besides, in series [2], the MFC was determined as 32 µg/mL.
For `CC(C)(CC[N+](C)(C)C1CCCCC1)N(Cl)Cl.[Cl-]` [Compound 21-126, N-(3-(Dichloroamino)-3-methylbutyl)-N,N-dimethylcyclohexanammonium chloride], the “CT50 (concentration that results in survival of 50% of the cells)” value in series [4] (pH 4 (Acetate)) was determined as 0.6 mM. The MBC in series [1] (setting [5]) stood at 4 µg/mL; in series [3] (setting [6]), 16 µg/mL. The MFC in series [2] was above 1020 µg/mL.
For the compound `CC(C)(C[N+]1(C)CCCCC1)N(Cl)Cl.[Cl-]` [Compound 21-78, 1-(2-(dichloroamino)-2-methylpropyl)-1-methylpiperidinium chloride], the MBC in series [1] (setting [5]) came to 8 µg/mL; in series [3] (setting [6]), 16 µg/mL. Further, in series [2], the MFC was found to be 64 µg/mL.
As for `CC(C)(CC(=O)OCC[N+]1(C)CCCCC1)N(Cl)Cl.[Cl-]` [Compound 21-93, 1-(2-(3-(Dichloroamino)-3-methylbutanoyloxy)ethyl)-1-methylpiperidinium chloride], the values for the MBC in series [1] (setting [5]), in series [3] (setting [6]) and in series [3] (setting [7]) were 2 µg/mL, 4 µg/mL and 512 µg/mL, respectively.
